Measurements reported in patent US9676820B2, “Method for inhibiting proliferation of high LIX1L-expressing tumor cell, and tumor cell proliferation-inhibiting peptide” (National University Corporation Hamamatsu University School …, priority 2013, dated 2017).

Columns and labels:
[1] = system: MKN45 cell strains; test: Cancer mouse model transplanted with MKN45 cell strain; type: in vivo; conditions: nude mice with MKN45 transplant; 100 μL of 30 μM peptide solution 4 times; vs spare mice given nothing
Experimental: Rearing of 10 nude male mice (BALB/cAJcl-nu/nu, purchased from CLEA Japan, Inc.) at the age of 7 weeks was started, and MKN45 cell strains separately cultured were transplanted into the mice by being subcutaneously injected thereinto on day 31. The day on which the transplantation was performed was set as day 0, the mice were divided into two groups (peptide 1-administered group and control peptide-administered group) of 5 mice on day 14 of the transplantation, 4 mice were selected among the 5 mice from each group, and the peptide 1 or the control peptide was administered. The remaining one mouse was set as a spare. In the peptide 1-administered group, 100 μL of a 30 μM peptide 1 solution (solution prepared by adding a methylcellulose solution to the solution after the peptide 1 was dissolved in PBS (−)) was subcutaneously injected into a tumor site (site into which the MKN45 cell strain was injected) 4 times every 3 days. In the control peptide-administered group, 100 μL of a 30 μM control peptide solution (solution prepared by adding a methylcellulose solution to the solution after the control peptide was dissolved in PBS (−)) was subcutaneously injected into a tumor site 4 times on the same days as those in the peptide 1-administered group.
The results in which the points of time (days) at which a peptide solution was administered to each mouse and the volume (mm^3) of a tumor site were temporally measured are shown in FIG. 21. For the volume of the tumor site, the width and the length of the tumor site determined from the appearance of the mouse were measured and calculated using the following formula. [Volume(mm^3) of Tumor Site]=([Width(mm) of Tumor Site]^2×[Length(mm) of Tumor Site])/2
The “width of tumor site” referred herein means a maximum width of a portion in which the skin has risen due to the tumor and the “length of tumor site” means a maximum length of a portion in which the skin has risen due to the tumor.

[2] = system: 293 FLG/LIX1L; test: MTT assay, 293 FLG/LIX1L cells; type: cell-based; conditions: 72 hours, peptide concentrations up to 250 μM
Experimental: (§1) Specifically, first, cells plated in a 96-well microplate such that the density thereof became 5×10^3 cells/well were cultured for one night in a culture solution having the same composition as those in the reference examples. […] After the culturing, an MTT-containing PBS solution was added to the culture solution, and the mixture was incubated for 4 hours. Then, formazan which was generated by putting 100 μL of isopropanol (containing 34 (v/v) % of hydrochloric acid) into each of the wells was dissolved. The absorbance of each of the wells of the microplate at 570 nm was measured using a microplate reader. As controls, culturing was performed in the same manner except that no peptide was added to the strains, an MTT assay was performed thereon, and the absorbance at 570 nm was measured (untreated).
(§2) In the method for measuring the viable cell counts, cells were cultured for 3 days similarly to Example 1 except that a 25 μM (10 μM for an HL-60 strain, a K562 strain, and a U937 strain) culture solution containing a control peptide or a peptide 1 was used, and the viable cell counts were measured. As a comparison, culturing was performed similarly to the above using a culture solution containing no peptide, and the viable cell counts were measured (untreated).
(§3) In addition, in the method for performing an MTT assay, cells were cultured for 72 hours similarly to Example 2 except that a peptide to be added to a strain was set to a control peptide or a peptide 1 at 25 μM (10 μM for an HL-60 strain, a K562 strain, and a U937 strain), an MTT assay was performed thereon, and the absorbance at 570 nm was measured. As a comparison, culturing was performed similarly to the above using a culture solution containing no peptide, and the MTT assay was performed thereon (untreated).
(§4) Specifically, the cells were cultured for 72 hours similarly to Example 2 except that a peptide to be added to a cell was set to a peptide 1, 2, 5, or 6, MTT assays were performed thereon, and the absorbance at 570 nm was measured. As a comparison, culturing was performed similarly to the above using a culture solution containing no peptide, and the MTT assay was performed thereon (untreated).
(§5) Specifically, the cells were cultured for 72 hours similarly to Example 2 except that peptides to be added to cell strains were set to peptides 7 to 14, MTT assays were performed thereon, and the absorbance at 570 nm was measured. […]
(§6) Specifically, the cells were cultured for 72 hours similarly to Example 2 except that a peptide to be added to a cell strain was set to a peptide 15 or 16, an MTT assay was performed thereon, and the absorbance at 570 nm was measured. […]

[3] = system: 293 FLG; test: MTT assay, 293 FLG cells; type: cell-based; conditions: 72 hours, peptide concentrations up to 250 μM
Experimental: as §1, §2, §3, §4, §5, §6

[4] = system: K562 strain; test: MTT assay, K562 strain; type: cell-based; conditions: 72 hours; for absorbance at 570 nm (MTT assay), influence on cell proliferation: peptide 0 μM to 100 μM
Experimental: (§7) Specifically, first, cells plated in a 96-well microplate such that the density thereof became 5×10^3 cells/well were cultured for one night in a culture solution having the same composition as those in the reference examples. Thereafter, the culture solution was exchanged with 100 μL of a culture solution of which the concentration of peptides is 0 μM to 100 μM for culturing for 72 hours. After the culturing, an MTT-containing PBS solution was added to the culture solution, and the mixture was incubated for 4 hours. Then, formazan which was generated by putting 100 μL of isopropanol (containing 34 (v/v) % of hydrochloric acid) into each of the wells was dissolved. The absorbance of each of the wells of the microplate at 570 nm was measured using a microplate reader. As controls, culturing was performed in the same manner except that no peptide was added to the strains, an MTT assay was performed thereon, and the absorbance at 570 nm was measured (untreated).
(§8) Specifically, the cells were cultured for 72 hours similarly to Example 2 except that a peptide to be added to a cell strain was set to peptide 1, 3, or 4, or a control peptide, an MTT assay was performed thereon, and the absorbance at 570 nm was measured.
as §2, §3, §4
as §4, with “that peptides” for “that a peptide”, “to” for “to a”, “cell strains were” for “cell was”, “to peptides 7 to 14,” for “to a peptide 1, 2, 5, or 6,”
Specifically, the cells were cultured for 72 hours similarly to Example 2 except that a peptide to be added to a cell strain was set to a peptide 15 or 16, an MTT assay was performed thereon, and the absorbance at 570 nm was measured. As a comparison, culturing was performed similarly to the above using a culture solution containing no peptide, and the MTT assay was performed thereon (untreated).

[5] = system: MKN45 strain; test: MTT assay, MKN45 strain; type: cell-based; conditions: 72 hours, peptide concentrations up to 250 μM
Experimental: as §1, §2, §3, §4, §5, §6

[6] = system: NUGC-4 strain; test: MTT assay, NUGC-4 strain; type: cell-based; conditions: 72 hours, peptide concentrations up to 250 μM
Experimental: as §1, §2, §3, §4, §5, §6

[7] = system: U937 strain; test: MTT assay, U937 strain; type: cell-based; conditions: peptide 0 μM to 100 μM, 72 hours
Experimental: as §7, §8, §2, §3

[8] = system: RPMI8226 strain; test: MTT assay, RPMI8226 strain; type: cell-based; conditions: peptide 0 μM to 100 μM, 72 hours
Experimental: as §7, §8

| Compound | absorbance at 570 nm (MTT assay), cell proliferation [7] | absorbance at 570 nm (MTT assay), influence on cell proliferation [4] | absorbance at 570 nm (MTT assay), influence on cell proliferation [8] | also measured |
| --- | --- | --- | --- | --- |
| N=C(N)NCCC[C@H](NC(=O)CNC(=O)[C@@H](N)Cc1ccc(O)cc1)C(=O)N[C@@H](CCCCN)C(=O)N[C@@H](CCCCN)C(=O)N[C@@H](CCCNC(=N)N)C(=O)N[C@@H](CCCNC(=N)N)C(=O)N[C@@H](CCC(N)=O)C(=O)N[C@@H](CCCNC(=N)N)C(=O)N[C@@H](CCCNC(=N)N)C(=O)N[C@@H](CCCNC(=N)N)C(=O)NCCCCCC(N)=O [control peptide, reference compound] | – | – | – | body weight [1]: no particularly significant change |
| YGRKKRRQRRR-X-HTQGYGRVNV-NH2 (YGRKKRRQRRRXHTQGYGRVNV; ε-aminocaproic acid linker; C-terminal amide; peptide 6) | – | – | – | cell proliferation (MTT assay, absorbance at 570 nm) [2]: not inhibited; cell proliferation (MTT assay, absorbance at 570 nm) [3]: not inhibited; cell proliferation (MTT assay, absorbance at 570 nm) ([4]; peptide concentrations up to 250 μM): not inhibited; cell proliferation (MTT assay, absorbance at 570 nm) [5]: not inhibited; cell proliferation (MTT assay, absorbance at 570 nm) [6]: not inhibited |
| peptide 3: peptide in which the Y136-containing partial sequence consists of 20 amino acids (YGRKKRRQRRRXEMVPSNSPPYVCYVTLPGGS; peptide 3) | inhibited | inhibited | not inhibited | – |
| peptide 4: peptide in which the Y136-containing partial sequence consists of 30 amino acids (YGRKKRRQRRRXALVVYEMVPSNSPPYVCYVTLPGGSCFGSF; peptide 4) | inhibited | inhibited | not inhibited | – |
